Reference: patent US11058668B2 (EIDOS THERAPEUTICS, INC., priority 2018, dated 2021)
Several values for one entry are separate records, joined by “and”; a condition that tells them apart may be missing. Equal values may be shown once.

Tests used:
TTR [1] = experiment: Phase 2 study in ATTR-CM patients, serum TTR concentration (ARUP Prealbumin assay); assay type: in vivo, human; conditions: all genotypes, ATTR-CM patients
Procedure: Screening and randomization will be followed by a 28-day blinded, placebo-controlled treatment period. Approximately 45 subjects are planned to enroll in the Phase 2 study.
An ARUP Prealbumin assay was also used to analyze TTR blood serum concentration in the MAD cohorts tested. ARUP analyzes samples for prealbumin using the prealbumin reagent kit provided by Roche Diagnostics and run on the Roche Diagnostics c702 module. Lowest reportable limit is 3 mg/dL.
The phase 2 clinical study was performed essentially as described in Example 3. A total of 49 patents were included instead of 45: 16 receiving 400 mg bid; 16 receiving 800 mg bid; and 17 receiving placebo.
TTR stabilization was measured ex vivo using the FPE and Western blot assays described at the beginning of the examples section. TTR stabilization was measured in vivo by monitoring TTR serum concentrations in trial participants.

TTR [2] = molecular target: T1, TTR (Canis lupus familiaris, UniProt A0A8I3NFK0); experiment: Single oral dose PK-PD in dogs, TTR occupancy by FPE; assay type: in vivo, beagle dog; conditions: 5 or 20 mg/kg AG10 HCl single oral dose
T1 construct: from tissue; host or cells: serum of orally dosed beagle dogs
Procedure: FPE assay for binding TTR in buffer and human or dog serum. […] The FPE probe is a thioester TTR ligand that is not fluorescent by itself, however upon binding to the T4 binding site of TTR it covalently modifies lysine 15 (K15), creating a fluorescent conjugate. Ligands that bind to the T4 site of TTR will decrease FPE probe binding as observed by lower fluorescence. The FPE assay was also adapted for use with dog serum. FPE with TTR in buffer: An aliquot of 98 μL of TTR in PBS (pH 7.4, final concentration: 2.5 μM) was mixed with 1 μL of test compounds (2.5 μM) and 1 μL of FPE probe (0.18 mM stock solution in DMSO: final concentration: 1.8 μM). The change in fluorescence (λex=328 nm and λem=384 nm) were monitored using a microplate spectrophotometer reader (SpectraMax M5) for 6 hr at rt. […] The change in fluorescence (λex=328 nm and λem=384 nm) were monitored using a microplate spectrophotometer reader (SpectraMax M5) for 6 hr at rt.
Blood was collected and analyzed pre-dose and at 2, 4, 6, 8, 12 and 24 hr post-dose.

TTR [3] = molecular target: T2, TTR (Homo sapiens, UniProt P02766); experiment: Isothermal titration calorimetry (ITC) with TTR in buffer; conditions: 25° C.; for Kd: PBS pH 7.4, single-site binding model
Procedure: (§1) Isothermal Titration Calorimetry (ITC). Binding experiments were performed using MicroCal PEAQ-ITC at 25° C. […] 19 injections of ligand (2.0 μL each) were injected into the ITC cell (at 25° C.) to the point that TTR was fully saturated with ligand. Calorimetric data were plotted and fitted using the standard single-site binding model.

[4] = pKa values of stabilizers; assay type: physicochemical; conditions: carboxylic acid group
TTR [5] = molecular target: T2, TTR; conditions: Tafamidis Phase 2 (FDA CDER background package); diflunisal observational study (Hanson 2018); cited from earlier work
[6] = molecular target: T3, human serum albumin (HSA) (Homo sapiens, UniProt P02768); experiment: ITC against human serum albumin; conditions: ITC titration against human serum albumin
Procedure: as §1

[7] = molecular target: T3, human serum albumin (HSA); experiment: Gel filtration and dialysis binding to human serum albumin; design: albumin from human serum; Sigma Aldrich, catalog no.: A3782; purchased Sigma Aldrich A3782; host or cells: human serum; conditions: 30 μM compound, 600 μM albumin
Procedure: The concentration of HSA (i.e. concentration at time zero) was also determined using NanoDrop™ (based on calibration curves of known HAS concentrations). […] The concentration of test compounds in these fractions (i.e. conc. at time zero) was evaluated using HPLC (based on calibration curves of known concentration of test compounds). 500 μL of each HSA/test compound samples was then added to a Slide-A-Lyzer Dialysis Cassette G2 (3.5K MWCO, Thermo Scientific, catalog no. P187722). The dialysis Cassettes were placed in 100 ml of assay buffer and stirred at room temperature. After 24 hr, the samples were removed from dialysis cassette and the volume was measured. The concentration of HAS and test compounds were determined using NanoDrop™ and HPLC as described above.

purified human TTRwt = purified human TTRwt (Homo sapiens, UniProt P02766); experiment: Modified FPE assay with purified TTR plus other serum proteins (selectivity); assay type: binding; conditions: purified TTR 5 μM
Procedure: The percentage of FPE probe binding to TTR in the presence of serum proteins measured after 3 hr of incubation was used to calculate % TTR occupancy.

TTR in human serum = molecular target: T4, TTR in human serum (Homo sapiens, UniProt P02766); experiment: FPE assay in human serum; assay type: binding; conditions: stabilizers 10 μM, human serum TTR 5 μM; FPE
T4 construct: pooled human serum (prepared from human male AB plasma, Sigma; catalog no; H4522; TTR concentration 5 μM); tissue Sigma H4522; host or cells: pooled human serum from human male AB plasma
From the text: FPE assay for binding TTR in buffer and human or dog serum. […] The FPE probe is a thioester TTR ligand that is not fluorescent by itself, however upon binding to the T4 binding site of TTR it covalently modifies lysine 15 (K15), creating a fluorescent conjugate. Ligands that bind to the T4 site of TTR will decrease FPE probe binding as observed by lower fluorescence. […] The change in fluorescence (λex=328 nm and λem=384 nm) were monitored using a microplate spectrophotometer reader (SpectraMax M5) for 6 hr at rt. […] The change in fluorescence (λex=328 nm and λem=384 nm) were monitored using a microplate spectrophotometer reader (SpectraMax M5) for 6 hr at rt.

T3 sequence (P02768 25-609): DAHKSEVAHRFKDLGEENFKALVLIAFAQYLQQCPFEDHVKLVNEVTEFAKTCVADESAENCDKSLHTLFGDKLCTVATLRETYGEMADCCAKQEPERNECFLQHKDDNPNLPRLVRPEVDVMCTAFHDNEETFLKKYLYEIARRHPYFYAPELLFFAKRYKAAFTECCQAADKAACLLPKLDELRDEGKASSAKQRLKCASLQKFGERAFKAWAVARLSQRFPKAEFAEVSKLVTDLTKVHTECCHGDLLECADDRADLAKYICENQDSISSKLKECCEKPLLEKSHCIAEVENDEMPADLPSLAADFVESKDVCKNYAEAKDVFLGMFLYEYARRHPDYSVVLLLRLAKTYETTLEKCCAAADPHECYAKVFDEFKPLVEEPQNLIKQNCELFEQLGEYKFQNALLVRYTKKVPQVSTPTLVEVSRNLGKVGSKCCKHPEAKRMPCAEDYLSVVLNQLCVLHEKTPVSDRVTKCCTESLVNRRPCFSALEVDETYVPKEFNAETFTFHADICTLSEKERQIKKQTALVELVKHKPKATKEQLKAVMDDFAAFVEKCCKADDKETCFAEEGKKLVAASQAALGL

With `Cc1n[nH]c(C)c1CCCOc1cc(C(=O)O)ccc1F.Cl` [AG10 HCl] the “Blood Serum TTR Concentration, Average Change (baseline to day 28)” value (TTR [1]; 400 mg b.i.d.) was 36%, the “Blood Serum TTR Concentration, Average Change (baseline to day 28)” value (TTR [1]; 800 mg b.i.d.) was 50% and the “TTR occupancy, dose comparison” value (TTR [2]) was “enhanced TTR occupancy in the 20 mg/kg vs. 5 mg/kg dose groups”.

`O=C(O)c1cc(-c2ccc(F)cc2F)ccc1O` [Diflunisal, reference compound] gave a TΔS (TTR [3]) of 0.34 kcal/mol, a ΔH (TTR [3]) of -8.38 kcal/mol and a pKa [4] of 2.94. For the same compound, the “change in serum TTR levels” value (TTR [5]) was “increased serum TTR levels”.

In the case of `O=C(O)c1ccc2nc(-c3cc(Cl)cc(Cl)c3)oc2c1` [Tafamidis, 2-(3,5-dichlorophenyl)-1,3-benzoxazole-6-carboxylic acid, reference compound], the TΔS (TTR [3]) is reported as 6.39 kcal/mol, the ΔH (TTR [3]) is reported as -5.0 kcal/mol and the ΔH (TTR [3]; listed as tafamidis) is reported as -5.00 kcal/mol and -5.0 kcal/mol. For the same compound, the Kd [6] was 2300 nM, the pKa [4] was 3.73 and the “concentration bound to HSA following dialysis vs buffer for 24 hr” value [7] was 18.8 ± 2.1 µM. For the same compound, the “concentration bound to albumin at time 0 (immediately after gel filtration)” value [7] was 24.1 ± 1.1 µM, the “change in serum TTR levels” value (TTR [5]) was “increased serum TTR levels” and the TTR occupancy (purified human TTRwt; in the absence of albumin) was 68.2±0.1%. For the same compound, the TTR occupancy (purified human TTRwt; in the presence of albumin (600 μM)) was 41.5±0.9%.

Compound `Cc1n[nH]c(C)c1CCCOc1cc(C(=O)O)ccc1I` [compound 1, 3-(3-(3,5-dimethyl-1H-pyrazol-4-yl)propoxy)-4-iodobenzoic acid] has a TΔS (TTR [3]) of -0.21 kcal/mol, a ΔG (TTR [3]) of -9.61 kcal/mol and a ΔH (TTR [3]) of -9.82 kcal/mol. For the same compound, the Kd (TTR [3]) was 90 ± 14 nM and the “% TTR Occupancy in Serum (2:1 ratio)” value (TTR in human serum) was 75.9 ± 3.1%.

`COC(=O)c1ccc(F)c(OCCCc2c(C)n[nH]c2C)c1` [compound 2, Methyl 3-(3-(3,5-dimethyl-1H-pyrazol-4-yl)propoxy)-4-fluorobenzoate] showed a TΔS (TTR [3]) of 2.5 kcal/mol, a ΔG (TTR [3]) of -8.99 kcal/mol and a ΔH (TTR [3]) of -6.49 kcal/mol. For the same compound, the Kd (TTR [3]) was 258 ± 17 nM.

Work on `Cc1nn(C)c(C)c1CCCOc1cc(C(=O)O)ccc1F` [compound 3, 4-fluoro-3-(3-(1,3,5-trimethyl-1H-pyrazol-4-yl)propoxy)benzoic acid] yielded a TΔS (TTR [3]) of 4.27 kcal/mol, a ΔG (TTR [3]) of -9.0 kcal/mol and a ΔH (TTR [3]) of -4.73 kcal/mol. For the same compound, the Kd (TTR [3]) was 251 ± 12 nM.

`CCc1n[nH]c(CC)c1CCCOc1cc(C(=O)O)ccc1F` [compound 4, 3-(3-(3,5-diethyl-1H-pyrazol-4-yl)propoxy)-4-fluorobenzoic acid] showed a TΔS (TTR [3]) of 6.0 kcal/mol, a ΔG (TTR [3]) of -8.1 kcal/mol and a ΔH (TTR [3]) of -2.1 kcal/mol. For the same compound, the Kd (TTR [3]) was 1250 ± 79 nM.
